Molecules are shown by their SMILES.

The values that follow come from US6339045B1, “N-(unsubstituted or substituted)-4-substituted-6-(unsubstituted or substituted)phenoxy-2-pyridinecarboxamides or thiocarboxamides, processes for producing the same, and herbicides” (Kureha Kagaku Kogyo Kabushiki Kaisha, priority 1995, dated 2002).

Common to all, as to experiment: Herbicidal effect by foliage and soil treatment
Common to all, as to assay type: in vivo
What all share (settings): 10 g ai/10a, evaluated after 14 days

For experiment [1], the system named is black nightshade (Solanum nigrum). The method, boiled down:
(§1)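 Scores are ratings of growth versus untreated plants 14 days after treatment. Plants grown to cotyledonal–bifoliate stage in granular soil at 19 to 25° C received a foliage-and-soil spray of test solution containing Tween 20, applied at a set compound amount.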

The test system of experiment [2] is cleavers (Galium aparine). In a few lines:
as §1

In experiment [3] the test system is common blackjack (Bidens pilosa). The method, boiled down: as §1
The subject of experiment [4] is common chickweed (Stellaria media). In a few lines:
as §1

Experiment [5] relates to field bindweed (Convolvulus arvensis). The method, boiled down: as §1
Experiment [6] relates to ivyleafspeedwell (Veronica hederaefolia). The method, boiled down: as §1
Experiment [7] relates to kediock (Sinapis arvensis). In a few lines:
as §1

Experiment [8] concerns redroot pigweed (Amaranthus retroflexus). In a few lines:
as §1

The subject of experiment [9] is sicklepod (Cassia obtusifolia). In a few lines: as §1
The test system of experiment [10] is velvetleaf (Abutilon theophrasti). In a few lines:
as §1

The test system of experiment [11] is wild chamomile (Matricaria chamomilla). The method, boiled down:
as §1

Turning to `COc1cc(Oc2cccc(C(F)(F)F)c2)nc(C(=O)NC2CC2)c1` [Compound I-48, N-cyclopropyl-4-methoxy-6-{3-(trifluoromethyl)phenoxy}-2-pyridine carboxamide], the “herbicidal activity rating, SN (Solanum nigrum)” value (shortened to “herbicidal activity rating, SN”) in [1] is on record as 5 (percentage of weeds killed was not less than 80%). In experiment [2], the “herbicidal activity rating, GA (Galium aparine)” value (from here on “herbicidal activity rating, GA”) is recorded as 5 (percentage of weeds killed was not less than 80%). In addition, the “herbicidal activity rating, BP (Bidens pilosa)” value (“herbicidal activity rating, BP” for short) in experiment [3] is 4 (percentage of weeds killed was not less than 60% and less than 80%). Moreover, in [4], the “herbicidal activity rating, SM (Stellaria media)” value (shortened to “herbicidal activity rating, SM”) is 5 (percentage of weeds killed was not less than 80%). Moreover, in experiment [5], the “herbicidal activity rating, CA (Convolvulus arvensis)” value (“herbicidal activity rating, CA” below) is reported as 5 (percentage of weeds killed was not less than 80%). The “herbicidal activity rating, VH (Veronica hederaefolia)” value (“herbicidal activity rating, VH” below) in experiment [6] is 5 (percentage of weeds killed was not less than 80%). Also, the “herbicidal activity rating, SA (Sinapis arvensis)” value (from here on “herbicidal activity rating, SA”) in experiment [7] was 5 (percentage of weeds killed was not less than 80%). Besides, in experiment [8], the “herbicidal activity rating, AR (Amaranthus retroflexus)” value (“herbicidal activity rating, AR” for short) is given as 5 (percentage of weeds killed was not less than 80%). Also, in [9], the “herbicidal activity rating, CO (Cassia obtusifolia)” value (“herbicidal activity rating, CO” for short) is listed as 5 (percentage of weeds killed was not less than 80%). In addition, in experiment [10], the “herbicidal activity rating, AT (Abutilon theophrasti)” value is 5 (percentage of weeds killed was not less than 80%). Also, the “herbicidal activity rating, MC (Matricaria chamomilla)” value (“herbicidal activity rating, MC” for short) in [11] is reported as 5 (percentage of weeds killed was not less than 80%).

As for `COc1cc(Oc2cccc(C(F)(F)F)c2)nc(C(=O)NC2CCC2)c1` [Compound I-49], the “herbicidal activity rating, SN” value in [1] is listed as 5 (percentage of weeds killed was not less than 80%). In [2], the “herbicidal activity rating, GA” value was 5 (percentage of weeds killed was not less than 80%). Besides, in experiment [3], the “herbicidal activity rating, BP” value was 5 (percentage of weeds killed was not less than 80%). In addition, the “herbicidal activity rating, SM” value in experiment [4] is 5 (percentage of weeds killed was not less than 80%). Also, in experiment [5], the “herbicidal activity rating, CA” value is 5 (percentage of weeds killed was not less than 80%). In addition, in experiment [6], the “herbicidal activity rating, VH” value is reported as 5 (percentage of weeds killed was not less than 80%). Also, the “herbicidal activity rating, SA” value in experiment [7] is listed as 5 (percentage of weeds killed was not less than 80%). In [8], the “herbicidal activity rating, AR” value is reported as 5 (percentage of weeds killed was not less than 80%). Besides, the “herbicidal activity rating, CO” value in experiment [9] is 5 (percentage of weeds killed was not less than 80%). In addition, the “herbicidal activity rating, AT (Abutilon theophrasti)” value in experiment [10] is on record as 5 (percentage of weeds killed was not less than 80%). Further, the “herbicidal activity rating, MC” value in experiment [11] is 5 (percentage of weeds killed was not less than 80%).

Turning to `COc1cc(Oc2cccc(C(F)(F)F)c2)nc(C(=O)NC2CCCC2)c1` [Compound I-50], the “herbicidal activity rating, SN” value in experiment [1] is 5 (percentage of weeds killed was not less than 80%). Besides, in experiment [2], the “herbicidal activity rating, GA” value is listed as 5 (percentage of weeds killed was not less than 80%). Further, the “herbicidal activity rating, BP” value in experiment [3] is 5 (percentage of weeds killed was not less than 80%). Further, in experiment [4], the “herbicidal activity rating, SM” value is on record as 5 (percentage of weeds killed was not less than 80%). The “herbicidal activity rating, CA” value in [5] is on record as 5 (percentage of weeds killed was not less than 80%). Also, the “herbicidal activity rating, VH” value in [6] is recorded as 5 (percentage of weeds killed was not less than 80%). In addition, the “herbicidal activity rating, SA” value in [7] is 5 (percentage of weeds killed was not less than 80%). Besides, the “herbicidal activity rating, AR” value in experiment [8] was 5 (percentage of weeds killed was not less than 80%). The “herbicidal activity rating, CO” value in experiment [9] is 4 (percentage of weeds killed was not less than 60% and less than 80%). In addition, the “herbicidal activity rating, AT (Abutilon theophrasti)” value in experiment [10] was 4 (percentage of weeds killed was not less than 60% and less than 80%). The “herbicidal activity rating, MC” value in [11] was 5 (percentage of weeds killed was not less than 80%).

In the case of `CCNC(=O)c1cc(OC)cc(Oc2cccc(C(F)(F)F)c2)n1` [Compound I-51], the “herbicidal activity rating, SN” value in experiment [1] is listed as 5 (percentage of weeds killed was not less than 80%). Further, the “herbicidal activity rating, GA” value in [2] was 5 (percentage of weeds killed was not less than 80%). Moreover, the “herbicidal activity rating, BP” value in experiment [3] is 3 (percentage of weeds killed was not less than 40% and less than 60%). In addition, the “herbicidal activity rating, SM” value in experiment [4] is listed as 5 (percentage of weeds killed was not less than 80%). Further, the “herbicidal activity rating, CA” value in experiment [5] was 4 (percentage of weeds killed was not less than 60% and less than 80%). For the same molecule, the “herbicidal activity rating, VH” value in experiment [6] is given as 5 (percentage of weeds killed was not less than 80%). In experiment [7], the “herbicidal activity rating, SA” value is listed as 5 (percentage of weeds killed was not less than 80%). The “herbicidal activity rating, AR” value in [8] is given as 5 (percentage of weeds killed was not less than 80%). In addition, the “herbicidal activity rating, CO” value in experiment [9] is listed as 5 (percentage of weeds killed was not less than 80%). The “herbicidal activity rating, AT (Abutilon theophrasti)” value in experiment [10] is 5 (percentage of weeds killed was not less than 80%). Moreover, the “herbicidal activity rating, MC” value in [11] is 4 (percentage of weeds killed was not less than 60% and less than 80%).

In the case of `CCCCCNC(=O)c1cc(OC)cc(Oc2cccc(C(F)(F)F)c2)n1` [Compound I-52], the “herbicidal activity rating, SN” value in experiment [1] was 5 (percentage of weeds killed was not less than 80%). Besides, in experiment [2], the “herbicidal activity rating, GA” value is 5 (percentage of weeds killed was not less than 80%). Besides, the “herbicidal activity rating, BP” value in [3] was 3 (percentage of weeds killed was not less than 40% and less than 60%). Also, the “herbicidal activity rating, SM” value in experiment [4] is given as 5 (percentage of weeds killed was not less than 80%). Further, the “herbicidal activity rating, CA” value in experiment [5] is on record as 5 (percentage of weeds killed was not less than 80%). Besides, the “herbicidal activity rating, VH” value in experiment [6] was 5 (percentage of weeds killed was not less than 80%). The “herbicidal activity rating, SA” value in experiment [7] was 5 (percentage of weeds killed was not less than 80%). Further, the “herbicidal activity rating, AR” value in experiment [8] was 5 (percentage of weeds killed was not less than 80%). Also, in experiment [9], the “herbicidal activity rating, CO” value was 4 (percentage of weeds killed was not less than 60% and less than 80%). In experiment [10], the “herbicidal activity rating, AT (Abutilon theophrasti)” value was 4 (percentage of weeds killed was not less than 60% and less than 80%). For the same molecule, in experiment [11], the “herbicidal activity rating, MC” value is 3 (percentage of weeds killed was not less than 40% and less than 60%).

Turning to `CSc1cc(Oc2cccc(C(F)(F)F)c2)nc(C(=O)NC(C)C)c1` [Compound I-55, N-(i-propyl)-4-methylmercapto-6-{3-(trifluoromethyl)phenoxy}-2-pyridine carboxamide], the “herbicidal activity rating, SN” value in [1] is given as 5 (percentage of weeds killed was not less than 80%). For the same molecule, the “herbicidal activity rating, GA” value in experiment [2] is listed as 5 (percentage of weeds killed was not less than 80%). In addition, the “herbicidal activity rating, BP” value in experiment [3] was 4 (percentage of weeds killed was not less than 60% and less than 80%). In addition, the “herbicidal activity rating, SM” value in experiment [4] was 4 (percentage of weeds killed was not less than 60% and less than 80%). In addition, the “herbicidal activity rating, CA” value in experiment [5] is 4 (percentage of weeds killed was not less than 60% and less than 80%). Further, the “herbicidal activity rating, VH” value in experiment [6] is 5 (percentage of weeds killed was not less than 80%). The “herbicidal activity rating, SA” value in [7] is 4 (percentage of weeds killed was not less than 60% and less than 80%). The “herbicidal activity rating, AR” value in experiment [8] is recorded as 5 (percentage of weeds killed was not less than 80%). For the same molecule, the “herbicidal activity rating, CO” value in [9] was 5 (percentage of weeds killed was not less than 80%). Also, the “herbicidal activity rating, AT (Abutilon theophrasti)” value in experiment [10] is 4 (percentage of weeds killed was not less than 60% and less than 80%). Moreover, the “herbicidal activity rating, MC” value in experiment [11] is 3 (percentage of weeds killed was not less than 40% and less than 60%).

Take `CNc1cc(Oc2cccc(C(F)(F)F)c2)nc(C(=O)NC(C)C)c1` [Compound I-56, N-(i-propyl)-4-methylamino-6-{3-(trifluoromethyl)phenoxy}-2-pyridine carboxamide]: the “herbicidal activity rating, SN” value in experiment [1] is 5 (percentage of weeds killed was not less than 80%). Further, the “herbicidal activity rating, GA” value in [2] is 5 (percentage of weeds killed was not less than 80%). In addition, the “herbicidal activity rating, BP” value in [3] was 4 (percentage of weeds killed was not less than 60% and less than 80%). The “herbicidal activity rating, SM” value in experiment [4] is 4 (percentage of weeds killed was not less than 60% and less than 80%). In addition, the “herbicidal activity rating, CA” value in experiment [5] is reported as 5 (percentage of weeds killed was not less than 80%). Besides, in [6], the “herbicidal activity rating, VH” value is given as 5 (percentage of weeds killed was not less than 80%). Besides, the “herbicidal activity rating, SA” value in experiment [7] is 5 (percentage of weeds killed was not less than 80%). For the same molecule, the “herbicidal activity rating, AR” value in [8] is given as 5 (percentage of weeds killed was not less than 80%). In addition, the “herbicidal activity rating, CO” value in experiment [9] is 4 (percentage of weeds killed was not less than 60% and less than 80%). Also, the “herbicidal activity rating, AT (Abutilon theophrasti)” value in experiment [10] is 5 (percentage of weeds killed was not less than 80%). For the same molecule, the “herbicidal activity rating, MC” value in [11] was 4 (percentage of weeds killed was not less than 60% and less than 80%).
